Measurements published in BindingDB's records for doi:10.1124/jpet.104.077321 (I.G.B.M.C., 2005).
Where a SMILES comes first, the peptide text is derived from it.

Molecular target: Delta-type opioid receptor (Homo sapiens, UniProt P41143)
Sequence (P41143 whole entry): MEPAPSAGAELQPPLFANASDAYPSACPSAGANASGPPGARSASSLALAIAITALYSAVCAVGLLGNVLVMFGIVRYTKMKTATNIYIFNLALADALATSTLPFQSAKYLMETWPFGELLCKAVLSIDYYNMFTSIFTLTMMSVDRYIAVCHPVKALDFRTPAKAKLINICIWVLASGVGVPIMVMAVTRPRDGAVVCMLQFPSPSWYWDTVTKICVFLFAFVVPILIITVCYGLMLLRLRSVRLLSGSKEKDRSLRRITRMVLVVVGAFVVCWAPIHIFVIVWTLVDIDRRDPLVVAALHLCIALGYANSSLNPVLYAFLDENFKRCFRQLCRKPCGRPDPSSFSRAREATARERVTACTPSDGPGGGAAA

Question: Which Ki does the source give for `Cc1cc(O)cc(C)c1C[C@@H](C(=O)N1Cc2ccccc2C[C@H]1C(N)=O)N(C)C` here?
Answer: 2.5 nM

Question: For `Cc1cc(O)cc(C)c1C[C@H](N)C(=O)N1Cc2ccccc2C[C@H]1C(=O)O` [(S)-2-((S)-2-amino-3-(4-hydroxy-2,6-dimethylphenyl)propanoyl)-1,2,3,4-tetrahydroisoquinoline-3-carboxylic acid] (HELM PEPTIDE1{[Cc1cc(O)cc(C)c1C[C@H](N)C(=O)[*:2]].[Tic]}$$$$V2.0), which Ki is on record?
Answer: 13.1 nM

Question: Which Ki does the source give for `Cc1cc(O)cc(C)c1C[C@H](N)C(=O)N1Cc2ccccc2C[C@H]1C(N)=O` [H-Dmt-Tic-NH2] (HELM PEPTIDE1{[Cc1cc(O)cc(C)c1C[C@H](N)C(=O)[*:2]].[Tic].[am]}$$$$V2.0) here?
Answer: 9.41 nM

Question: With `CCO[C@@]12Cc3c([nH]c4ccccc34)[C@]3(C)Oc4c(O)ccc5c4C31CCN(CC1CC1)C2C5` (stereo partly specified) [HS378] as the compound, how does the Ki read?
Answer: 0.4 nM

Question: For `C=CCN1CCC23c4c5ccc(O)c4OC2c2[nH]c4ccccc4c2C[C@@]3(OCC)C1C5` (stereo partly specified) [HS414], which Ki is on record?
Answer: 2.1 nM

Question: With `CCO[C@@]12Cc3c([nH]c4ccccc34)C3Oc4c(O)ccc5c4C31CCN(CC1CC1)C2C5` (stereo partly specified) [HS464] as the compound, how does the Ki read?
Answer: 0.11 nM

Question: With `CCO[C@@]12Cc3c(oc4ccccc34)C3Oc4c(O)ccc5c4C31CCN(CC1CC1)C2C5` (stereo partly specified) [HS510A] as the compound, how does the Ki read?
Answer: 0.12 nM

Question: For `C=CCN1CCC23c4c5ccc(O)c4OC2c2c(c4ccccc4n2C)C[C@@]3(OC)C1C5` (stereo partly specified) [HS531], which Ki is on record?
Answer: 0.42 nM

Question: Which Ki does the source give for `COc1c(O)cc2c3c1O[C@@]1(C)c4oc5ccccc5c4C[C@@]4(O)C(C2)N(CC2CC2)CCC314` (stereo partly specified) [NSC_0] here?
Answer: 0.22 nM

Question: With `C=CCN(CC=C)[C@@H](Cc1ccc(O)cc1)C(=O)NC(C)(C)C(=O)NC(C)(C)C(=O)N[C@@H](Cc1ccccc1)C(=O)N[C@@H](CC(C)C)C(=O)O` [NSC_107691] (HELM PEPTIDE1{[C=CCN(CC=C)[C@@H](Cc1ccc(O)cc1)C(=O)[*:2]].[Aib].[Aib].F.L}$$$$V2.0) as the compound, how does the Ki read?
Answer: 434 nM

Question: For `N[C@@H](Cc1ccc(O)cc1)C(=O)N1Cc2ccccc2C[C@H]1C(=O)N[C@@H](Cc1ccccc1)C(=O)N[C@@H](Cc1ccccc1)C(=O)O` [TIPP] (HELM PEPTIDE1{Y.[Tic].F.F}$$$$V2.0), which Ki is on record?
Answer: 2.9 nM
